# In patent US8722849B2, “Polypeptides” (Novo Nordisk A/S, priority 2011, dated 2014):
# Starred links: 1 amine or outer side, 2 acyl side, 3 side chain; linkers in the order of their positions; H or OH if unused. Positions of bridges follow the written chain, without caps; N, C: chain ends. Residues, ends and D or L forms follow the SMILES beside them. Groups on a side chain read outwards from the residue. *: point of attachment. C20 diacid = O=C(O)CCCCCCCCCCCCCCCCCCC(=O)*; C18 diacid = O=C(O)CCCCCCCCCCCCCCCCC(=O)*; γGlu = O=C(O)[C@H](CCC(=O)[*:2])N[*:1]; AEEA = NCCOCCOCC(=O)O
# Experiments:
# [1] = target: T1, human amylin receptor (amylin 3(a) receptor: human calcitonin receptor + RAMP-3) (Homo sapiens, UniProt O60896+P30988); assay: Assay (II)a functional CRE-luciferase assay, human amylin receptor; format: cell-based; conditions: Table 7; human amylin receptor
# T1 construct: expressed in transfected cells; host or cells: BHK570
# T1 sequence (P30988 25-474): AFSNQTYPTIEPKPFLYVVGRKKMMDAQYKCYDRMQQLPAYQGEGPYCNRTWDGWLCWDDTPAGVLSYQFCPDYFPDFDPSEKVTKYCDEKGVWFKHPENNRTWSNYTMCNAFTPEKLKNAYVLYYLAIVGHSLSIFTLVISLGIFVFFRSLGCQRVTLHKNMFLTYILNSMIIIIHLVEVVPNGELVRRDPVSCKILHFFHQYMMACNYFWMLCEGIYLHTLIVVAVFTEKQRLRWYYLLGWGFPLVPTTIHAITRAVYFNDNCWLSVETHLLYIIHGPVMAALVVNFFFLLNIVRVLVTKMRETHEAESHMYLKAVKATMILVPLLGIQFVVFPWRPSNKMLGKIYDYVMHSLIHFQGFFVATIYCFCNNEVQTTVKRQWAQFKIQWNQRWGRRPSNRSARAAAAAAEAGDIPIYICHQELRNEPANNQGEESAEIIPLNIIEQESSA
# T1 sequence (O60896 24-148 partner): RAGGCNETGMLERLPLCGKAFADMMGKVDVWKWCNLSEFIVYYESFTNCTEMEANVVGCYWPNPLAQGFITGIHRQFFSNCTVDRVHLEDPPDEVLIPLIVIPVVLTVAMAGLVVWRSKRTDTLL
# Source text: (§1) 1. Luciferase Assay Outline
# (§2) Activation of calcitonin and amylin (coexpression of calcitonin receptor and receptor activity modifying proteins (RAMP)) receptors lead to increased intracellular concentrations of cAMP. Consequently, transcription is activated by promoters containing multiple copies of the cAMP response element (CRE). It is thus possible to measure amylin activity by the use of a CRE luciferase reporter gene introduced into BHK cells also expressing calcitonin or amylin receptors.
# (§3) A BHK570 cell line was stably transfected with the human calcitonin receptor and a CRE-responsive luciferase reporter gene. The cell line was further transfected with RAMP-3, using standard methods. This turns the calcitonin receptor into an amylin 3(a) receptor. Methotrexate, Neomycin, and Hygromycin are selection markers for luciferase, the calcitonin receptor, and RAMP-3, respectively.
# (§4) To perform activity assays, BHK calcitonin (a) receptor- or amylin 3(a)-receptor/CRE-luc cells were seeded in white 96 well culture plates at a density of about 20.000 cells/well. […] Further, 50 μl/well of standard or sample in assay buffer were added. After 3 hours incubation at 37° C. and 5% CO2, the assay medium with standard or sample were removed and replaced by 100 μl/well PBS. Further, 100 μl/well LucLite™ was added. The plates were sealed and incubated at room temperature for 30 minutes. Finally, luminescence was measured on a TopCounter (Packard) in SPC (single photon counting) mode.
# [2] = target: T2, human calcitonin receptor (Homo sapiens, UniProt P30988); assay: Assay (II)a functional CRE-luciferase assay, human calcitonin receptor; format: cell-based; conditions: Table 7; human calcitonin (CTa) receptor
# T2 construct: expressed in transfected cells; host or cells: BHK570
# T2 sequence (P30988 25-474): T1 sequence (P30988 25-474)
# Source text: as §1, §2, §3, §4
# [3] = Assay (III) ThT fibrillation assay for physical stability; format: physicochemical; conditions: ThT fibrillation assay
# Source text: ASSAY (III)—ThT Fibrillation Assays for the Assessment of Physical Stability of Protein formulations Low physical stability of a polypeptide may lead to amyloid fibril formation, which is observed as well-ordered, thread-like macromolecular structures in the sample eventually resulting in gel formation. This has traditionally been measured by visual inspection of the sample. However, that kind of measurement is very subjective and depending on the observer. Therefore, the application of a small molecule indicator probe is much more advantageous. Thioflavin T (ThT) is such a probe and has a distinct fluorescence signature when binding to fibrils [Naiki et al. (1989) Anal. Biochem. 177, 244-249; LeVine (1999) Methods. Enzymol. […], 274-284]. The time course for fibril formation can be described by a sigmoidal curve with the following expression [Nielsen et al. (2001) Biochemistry 40, 6036-6046]: [formula] Here, F is the ThT fluorescence at the time t. The constant t0 is the time needed to reach 50% of maximum fluorescence. […] Few of those intermediates nucleate to form a template onto which further intermediates may assembly and the fibrillation proceeds. The lag-time corresponds to the interval in which the critical mass of nucleus is built up and the apparent rate constant is the rate with which the fibril itself is formed. Sample Preparation Samples were prepared freshly before each assay. Each sample composition is described in each example. The pH of the sample was adjusted to the desired value using appropriate amounts of concentrated NaOH and HClO4 or HCl. Thioflavin T was added to the samples from a stock solution in H2O to a final concentration of 1 μM. Sample aliquots of 200 μl were placed in a 96 well microtiter plate (Packard OptiPlate™-96, white polystyrene). Usually, four or eight replica of each sample (corresponding to one test condition) were placed in one column of wells. The plate was sealed with Scotch Pad (Qiagen). Incubation and Fluorescence Measurement Incubation at given temperature, shaking and measurement of the ThT fluorescence emission were done in a Fluoroskan Ascent FL fluorescence platereader or Varioskan platereader (Thermo Labsystems). The temperature was adjusted to 37° C. The orbital shaking was adjusted to 960 rpm with an amplitude of 1 mm in all the presented data. Fluorescence measurement was done using excitation through a 444 nm filter and measurement of emission through a 485 nm filter. Each run was initiated by incubating the plate at the assay temperature for 10 min. The plate was measured every 20 minutes for a desired period of time. Between each measurement, the plate was shaken and heated as described. Data Handling The measurement points were saved in Microsoft Excel format for further processing and curve drawing and fitting was performed using GraphPad Prism. The background emission from ThT in the absence of fibrils was negligible. The data points are typically a mean of four or eight samples and shown with standard deviation error bars. Only data obtained in the same experiment (i.e. samples on the same plate) are presented in the same graph ensuring a relative measure of fibrillation between experiments. The data set may be fitted to Eq. (1). However, since full sigmodial curves in this case are not always achieved during the measurement time, the degree of fibrillation is expressed as ThT fluorescence tabulated as the mean of the samples and shown with the standard deviation at various time points. Measurement of Initial and Final Concentrations The polypeptide concentration in each of the tested formulations were measured both before application in the ThT fibrillation assay (“Initial”) and after completion of the ThT fibrillation (“After ThT assay”). Concentrations were determined by reverse HPLC methods using a pramlintide standard as a reference. Before measurement after completion 150 μl was collected from each of the replica and transferred to an Eppendorf tube. […]
SMILES,EC50 [1] [nM],EC50 [2] [nM],ThT pH 4.0 lag time (h) [3] [h]
"CC[C@H](C)[C@H](NC(=O)[C@@H]1CCCN1C(=O)CNC(=O)[C@H](Cc1ccccc1)NC(=O)[C@H](CC(N)=O)NC(=O)[C@H](CC(N)=O)NC(=O)[C@H](CO)NC(=O)[C@H](CO)NC(=O)[C@H](Cc1c[nH]cn1)NC(=O)[C@H](CCCNC(=N)N)NC(=O)[C@H](CC(C)C)NC(=O)[C@H](Cc1ccccc1)NC(=O)[C@H](CCCNC(=N)N)NC(=O)[C@H](C)NC(=O)[C@H](CC(C)C)NC(=O)[C@H](CCCNC(=N)N)NC(=O)[C@H](CCC(N)=O)NC(=O)[C@@H](NC(=O)[C@H](C)NC(=O)[C@@H]1CSSC[C@H](NC(=O)[C@H](CCCCN)NC(=O)CC[C@H](NC(=O)CCCCCCCCCCCCCCCCCCC(=O)O)C(=O)O)C(=O)N[C@@H](CC(N)=O)C(=O)N[C@@H]([C@@H](C)O)C(=O)N[C@@H](C)C(=O)N[C@@H]([C@@H](C)O)C(=O)N1)[C@@H](C)O)C(=O)N[C@@H](CC(C)C)C(=O)N1CCC[C@H]1C(=O)N1CCC[C@H]1C(=O)N[C@H](C(=O)N[C@@H](CC(N)=O)C(=O)N[C@H](C(=O)NCC(=O)N[C@@H](CO)C(=O)N[C@@H](CC(N)=O)C(=O)N[C@H](C(=O)N1CCC[C@H]1C(N)=O)[C@@H](C)O)C(C)C)[C@@H](C)O [Example 152, N-alpha-[(S)-4-Carboxy-4-(19-carboxynonadecanoylamino)butyryl]-[Arg14,Arg17,Pro37]-pramlintide] ({C20 diacid-γGlu}-KCNTATCATQRLARFLRHSSNNFGPILPPTNVGSNTP-NH2; disulfide 2-7 (inferred); C-terminus assumed)",0.129,0.453,–
"CC[C@H](C)[C@H](NC(=O)[C@@H]1CCCN1C(=O)CNC(=O)[C@H](Cc1ccccc1)NC(=O)[C@H](CC(N)=O)NC(=O)[C@H](CC(N)=O)NC(=O)[C@H](CO)NC(=O)[C@H](CO)NC(=O)[C@H](Cc1c[nH]cn1)NC(=O)[C@H](CCCNC(=N)N)NC(=O)[C@H](CC(C)C)NC(=O)[C@H](Cc1ccccc1)NC(=O)[C@H](CC(N)=O)NC(=O)[C@H](C)NC(=O)[C@H](CC(C)C)NC(=O)[C@H](CCCNC(=N)N)NC(=O)[C@H](CCC(N)=O)NC(=O)[C@@H](NC(=O)[C@H](C)NC(=O)[C@@H]1CSSC[C@H](NC(=O)[C@H](CCCCN)NC(=O)CC[C@H](NC(=O)CCCCCCCCCCCCCCCCCCC(=O)O)C(=O)O)C(=O)N[C@@H](CC(N)=O)C(=O)N[C@@H]([C@@H](C)O)C(=O)N[C@@H](C)C(=O)N[C@@H]([C@@H](C)O)C(=O)N1)[C@@H](C)O)C(=O)N[C@@H](CC(C)C)C(=O)N1CCC[C@H]1C(=O)N1CCC[C@H]1C(=O)N[C@H](C(=O)N[C@@H](CC(N)=O)C(=O)N[C@H](C(=O)NCC(=O)N[C@@H](CO)C(=O)N[C@@H](CC(N)=O)C(=O)N[C@H](C(=O)N1CCC[C@H]1C(N)=O)[C@@H](C)O)C(C)C)[C@@H](C)O [Example 154, N-alpha-[(S)-4-Carboxy-4-(19-carboxynonadecanoylamino)butyryl]-[Arg17,Pro37]-pramlintide] ({C20 diacid-γGlu}-KCNTATCATQRLANFLRHSSNNFGPILPPTNVGSNTP-NH2; disulfide 2-7 (inferred); C-terminus assumed)",–,0.057,–
"CC[C@H](C)[C@H](NC(=O)[C@H](CCCCNC(=O)COCCOCCNC(=O)COCCOCCNC(=O)CC[C@H](NC(=O)CCCCCCCCCCCCCCCCC(=O)O)C(=O)O)NC(=O)CNC(=O)[C@H](Cc1ccccc1)NC(=O)[C@H](CC(N)=O)NC(=O)[C@H](CC(N)=O)NC(=O)[C@H](CO)NC(=O)[C@H](CO)NC(=O)[C@H](Cc1c[nH]cn1)NC(=O)[C@@H](NC(=O)[C@H](CC(C)C)NC(=O)[C@H](Cc1ccccc1)NC(=O)[C@H](CCC(=O)O)NC(=O)[C@H](C)NC(=O)[C@H](CC(C)C)NC(=O)[C@H](CCCNC(=N)N)NC(=O)[C@H](CCC(N)=O)NC(=O)[C@@H](NC(=O)[C@H](C)NC(=O)[C@@H]1CSSC[C@H](NC(=O)[C@@H](N)CCCCN)C(=O)N[C@@H](CC(N)=O)C(=O)N[C@@H]([C@@H](C)O)C(=O)N[C@@H](C)C(=O)N[C@@H]([C@@H](C)O)C(=O)N1)[C@@H](C)O)C(C)C)C(=O)N[C@@H](CC(C)C)C(=O)N1CCC[C@H]1C(=O)N1CCC[C@H]1C(=O)N[C@H](C(=O)N[C@@H](CC(N)=O)C(=O)N[C@H](C(=O)NCC(=O)N[C@@H](CO)C(=O)N[C@@H](CC(N)=O)C(=O)N[C@H](C(=O)N[C@@H](Cc1ccc(O)cc1)C(N)=O)[C@@H](C)O)C(C)C)[C@@H](C)O [Example 126, N-epsilon25-[2-(2-{2-[2-(2-{2-[(S)-4-Carboxy-4-(17-carboxyheptadecanoylamino)butyrylamino]ethoxy}ethoxy)acetylamino]ethoxy}ethoxy)acetyl]-[Glu14,Lys25]-pramlintide] (H-KCNTATCATQRLAEFLVHSSNNFGK([AEEA-AEEA-γGlu-C18 diacid])ILPPTNVGSNTY-NH2; disulfide 2-7 (inferred))",–,–,10
